Laboratory results from ChEMBL document CHEMBL1201862, “PubChem BioAssay data set” (2004).
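A five-concentration, 48-hour dose response in 96-well plates underlies each endpoint, interpolated linearly between surrounding concentrations. Here, GI50 denotes the concentration required for 50% inhibition of growth.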 Activity calls are given as the source filed them. Cut-off read from the data, not from the text of the source: active = GI50 up to about 1.1 µM and inactive = higher.

Legend:
Assay in all cases: DTP human tumour cell line panel, 48 h
[1] = tested on: SR
[2] = tested on: RXF 393
[3] = tested on: ACHN
[4] = tested on: OVCAR-8
[5] = tested on: SNB-75
[6] = tested on: NCI-H23
[7] = tested on: UACC-257
[8] = tested on: EKVX
[9] = tested on: K562
[10] = tested on: A498
[11] = tested on: HT-29
[12] = tested on: SF-295
[13] = tested on: HL-60
[14] = tested on: UACC-62
[15] = tested on: Malme-3M
[16] = tested on: RPMI-8226

Measured: GI50

CCc1ccccc1NC(=O)C(=O)CC(=O)c1sc(Nc2ccccc2)nc1C
inactive: [1] 99.3 µM | [2] > 100 µM | [3] > 100 µM | [4] > 100 µM | [5] 67.9 µM | [6] > 100 µM | [7] > 100 µM | [8] 29.4 µM | [9] 97.1 µM | [10] > 100 µM | [11] > 100 µM | [12] > 100 µM | [13] 89.1 µM | [14] 99.5 µM | [15] > 100 µM

Cc1ccccc1NC(=O)CC(=O)n1nc(-c2ccccc2)c(/N=N/c2ccc([N+](=O)[O-])cc2)c1-c1ccccc1
inactive: [1] 25.1 µM | [2] 19.1 µM | [3] 11.2 µM | [4] 31.4 µM | [5] 19.2 µM | [6] 21.3 µM | [7] 19.9 µM | [8] 20.2 µM | [9] 12.3 µM | [16] 19.2 µM | [11] 8.34 µM | [12] 17.4 µM | [13] 19.9 µM | [14] 13.1 µM | [15] 23.8 µM

[N-]=[N+]=NC(c1cn(C2CC(O)C(CO)O2)c(=O)[nH]c1=O)C(Cl)Br (stereo not given)
inactive: [1] > 100 µM | [2] > 100 µM | [3] > 100 µM | [4] > 100 µM | [5] > 100 µM | [6] > 100 µM | [8] > 100 µM | [9] > 100 µM | [16] > 100 µM | [11] > 100 µM | [12] > 100 µM | [13] > 100 µM | [15] > 100 µM

COP1(=O)CC2C(Cl)(Cl)C2(C)C1 (stereo not given)
inactive: [2] > 100 µM | [4] > 100 µM | [5] > 100 µM | [6] > 100 µM | [9] > 100 µM | [16] > 100 µM | [11] > 100 µM | [12] > 100 µM | [13] > 100 µM | [14] > 100 µM

NC(Cc1ccccc1)C(=O)OCN1C(=O)C2C3C=CC(C2C1=O)C1C2C(=O)N(COC(=O)C(N)Cc4ccccc4)C(=O)C2C31 (stereo not given)
inactive: [2] 22.1 µM | [3] 26.5 µM | [4] 20.2 µM | [5] 26.2 µM | [6] 19.9 µM | [7] 23.2 µM | [9] 29.6 µM | [16] 18.7 µM | [11] 31.8 µM | [12] 41.7 µM | [13] 32.2 µM | [14] 20.7 µM

CCCCCCCCCCCCCCCCCC(=O)NCCCNCCCNC(=O)CCCCCCCCCCCCCCCCC
inactive: [3] > 100 µM | [4] > 100 µM | [6] > 100 µM | [7] > 100 µM | [9] > 100 µM | [16] > 100 µM | [10] > 100 µM | [11] > 100 µM | [12] > 100 µM | [13] > 100 µM | [14] > 100 µM | [15] > 100 µM

O=C1C=Cc2ncccc2C1=O
inactive: [2] 20 µM | [3] 20.8 µM | [4] 16.3 µM | [5] 21.3 µM | [6] 20.3 µM | [7] 20 µM | [8] 23.5 µM | [9] 7.71 µM | [16] 24.1 µM | [10] > 54 µM | [11] 22.2 µM | [12] 17.6 µM | [13] 5.22 µM | [14] 16.8 µM | [15] 29.9 µM

Nc1ccc2c(c1)Oc1c(F)c(F)cc3c(=O)c(C(=O)O)cn-2c13
inactive: [1] 34.6 µM | [2] 43.8 µM | [4] 40.2 µM | [6] 64.1 µM | [8] > 100 µM | [9] 59.6 µM | [16] 25.2 µM | [10] 4 µM | [11] 35.2 µM | [13] 38.9 µM | [14] 31.3 µM | [15] 45.9 µM

O/N=C1/CCCC/C1=C\c1ccc(Cl)c(Cl)c1
inactive: [3] 28.7 µM | [4] 33.7 µM | [5] 20.7 µM | [6] 28.8 µM | [8] 23.9 µM | [9] 27.8 µM | [10] 29.6 µM | [11] 18.8 µM | [12] 40.5 µM | [13] 3.8 µM | [14] 29.7 µM

COC1=CC(=C(C#N)/C(=N\c2ccccc2)SC)C=C(OC)C1=O
inactive: [2] 24.4 µM | [3] 40.8 µM | [4] 31.1 µM | [5] 95.3 µM | [6] 54.5 µM | [7] 56.6 µM | [8] > 100 µM | [9] 22.6 µM | [16] 18.8 µM | [10] 20.9 µM | [11] > 100 µM | [12] 69.2 µM | [14] 44.3 µM | [15] > 100 µM

COC(=O)c1ccccc1NC(=O)C(=O)NNC(=O)c1ccncc1
inactive: [1] > 100 µM | [2] > 100 µM | [3] > 100 µM | [4] > 100 µM | [5] > 100 µM | [6] > 100 µM | [7] > 100 µM | [8] > 100 µM | [11] > 100 µM | [12] > 100 µM | [13] > 100 µM | [14] > 100 µM | [15] > 100 µM

COc1ccc(/C=C2/C[N+](C)(C)C/C(=C/c3ccc(OC)cc3)C2=O)cc1
inactive: [2] > 100 µM | [3] > 100 µM | [4] 31.9 µM | [5] 66.7 µM | [6] 56 µM | [7] 29.4 µM | [8] > 100 µM | [9] 11.6 µM | [16] 5.7 µM | [10] 68.4 µM | [11] 30.2 µM | [12] > 77.1 µM | [13] 14.7 µM | [14] 16.3 µM | [15] 22.5 µM

Cc1c(Cl)ccc2c1NC(=O)C2(O)C1Cc2ccccc2C1=O (stereo not given)
inactive: [1] 27.9 µM | [2] 57.9 µM | [3] > 100 µM | [4] 11.2 µM | [6] > 100 µM | [7] > 100 µM | [8] > 100 µM | [9] 62.1 µM | [16] 42.5 µM | [10] > 100 µM | [11] > 100 µM | [12] > 100 µM | [13] 21.2 µM | [14] 72.6 µM | [15] > 100 µM

Clc1ccccc1C1=NN(c2ccccc2)C2c3ccccc3OCC12 (stereo not given)
inactive: [2] > 100 µM | [3] > 100 µM | [4] > 100 µM | [5] > 100 µM | [6] > 100 µM | [7] 79.3 µM | [8] > 100 µM | [9] 44.3 µM | [16] 34.1 µM | [10] > 100 µM | [11] 58.5 µM | [12] 79.6 µM | [13] 41.6 µM | [15] > 100 µM

CCCO/S(=N\S(=O)(=O)c1ccccc1)c1ccccc1[N+](=O)[O-] (stereo not given)
inactive: [1] > 100 µM | [3] > 100 µM | [4] > 100 µM | [5] > 100 µM | [6] > 100 µM | [7] > 100 µM | [8] > 100 µM | [9] > 100 µM | [16] > 100 µM | [11] > 100 µM | [12] > 100 µM | [14] > 100 µM | [15] > 100 µM

[N-]=[N+]=NC1CC(n2cc(COCC(F)(F)F)c(=O)[nH]c2=O)OC1CO (stereo not given)
inactive: [2] > 100 µM | [3] > 100 µM | [4] > 100 µM | [5] > 100 µM | [6] > 100 µM | [7] > 100 µM | [8] > 100 µM | [9] > 100 µM | [16] > 100 µM | [10] > 100 µM | [11] > 100 µM | [12] > 100 µM | [13] > 100 µM | [14] > 100 µM | [15] > 100 µM

Cc1cc2c(cc1C)[n+]([O-])c(C(=O)/C=C/c1ccc(Cl)cc1)c(C)[n+]2[O-]
inactive: [3] 25.5 µM | [4] 29.7 µM | [5] 19.6 µM | [6] 20.7 µM | [7] 27.3 µM | [8] 55 µM | [9] 33.6 µM | [16] 23.4 µM | [10] 26.7 µM | [11] 30.3 µM | [12] 22 µM | [13] 24 µM | [14] 20.3 µM | [15] 38.5 µM

COC(=O)C(=O)C(CC(=O)Nc1ccc(C)cc1)C(=O)OC (stereo not given)
inactive: [1] > 100 µM | [2] > 100 µM | [3] > 100 µM | [4] > 100 µM | [6] > 100 µM | [7] > 100 µM | [8] > 100 µM | [9] > 100 µM | [16] > 100 µM | [11] > 100 µM | [12] > 100 µM | [13] > 100 µM | [14] > 100 µM | [15] > 100 µM

NC(=O)c1ccccc1NC(=O)C(=O)C(C(=O)c1ccc2ccccc2c1)C1OC(=O)c2ccccc21 (stereo not given)
inactive: [2] 2.09 µM | [3] > 100 µM | [4] 7.66 µM | [5] 8.15 µM | [6] 9.66 µM | [7] 13.3 µM | [8] 26.5 µM | [9] 16.5 µM | [16] 8.91 µM | [10] > 100 µM | [11] 27.8 µM | [14] 10.4 µM | [15] 10.4 µM

Clc1ccc(C2=NOC3C4CCC(C4)C23)cc1 (stereo not given)
inactive: [1] 61.2 µM | [3] > 100 µM | [4] > 100 µM | [5] > 100 µM | [6] > 100 µM | [7] > 100 µM | [8] > 100 µM | [9] > 100 µM | [16] 87.1 µM | [10] > 100 µM | [11] > 100 µM | [12] 73.1 µM | [13] 56 µM | [14] > 100 µM | [15] > 100 µM
